Experimental data taken from US20240131034A1, “METHODS OF TREATING STAPHYLOCOCCUS AUREUS BACTEREMIA INFECTIONS” (Basilea Pharmaceutica International AG, Allschwil, priority 2022, published 2024).
“Also recorded” adds a separate entry of the source.

Experiments:
[1] = test system: Staphylococcus aureus bacteremia (SAB); test: Phase 3 study of ceftobiprole vs daptomycin ± aztreonam in complicated SAB (NCT03138733): efficacy; type: in vivo, human; details: for DRC-assessed SAB relapses: 4 patients on daptomycin (2 MSSA, 2 MRSA), 2 patients on ceftobiprole (all MSSA); for Overall success rate in patients with high vancomycin MICs of 2-8 mg/L: 16 patients (8 MRSA, 8 MSSA), 7/8 vs 4/8; for Adjusted difference ceftobiprole − daptomycin ± aztreonam (95% CI): DRC overall success at PTE (mITT): Cochran-Mantel-Haenszel weights, adjusted for dialysis status and prior antibacterial treatment use; for Non-inferiority for overall success at PTE (70 days post-randomization): pre-specified −15% non-inferiority margin
[2] = type: in vivo
Method: Safety population: The safety population consisted of all randomized patients who received any amount/dose of study medication. Patients in the safety population were analyzed according to the first medication actually received.
Ceftohiprole 500 mg (as 667 mg ceftobiprole medocaril) was administered as a 2-hour intravenous (i.v.) infusion every 6 hours in the first 8 days, and every 8 hours from Day 9 onwards (with dose and/or schedule adjusted in patients with renal impairment). Daptomycin weight-based at 6 mg/kg (up to 10 mg/kg in accordance with institutional standards) administered as 0.5-hour i.v. infusion every 24 hours (with schedule adjusted in patients with renal impairment). Optional aztreonam 1000 mg fixed dose administered as 0.5-hour i.v. infusion every 24 hours (with dose adjusted in patients with renal impairment). The target treatment duration in Part I was 21-28 days of study medication, with a maximum treatment duration of 28 days. The maximum treatment duration In Part 2 was 42 days.
• 1. All-cause mortality assessed at Day 70 (PTE visit) in the mITT population. • 2. Microbiological cradication assessed by the DRC at Day 70 (PTE visit) in the mITT population. • 3. The overall success rate in the ITT, mITT, and CE populations; • a) at the BOT and PTE (ITT and CE populations only) visits • b) at the EOT and PTE visits, for RIE vs non-IE SAB • c) at the EOT and PTE visits, by renal-function status • 4. Development of new metastatic foci or other complications of SAB after Day 7 assessed in the mITT and CE populations. • 5. Time to S. aureus bloodstream clearance, defined as the elapsed time (days) from randomization to bloodstream clearance, with bloodstream clearance defined as the occurrence of two consecutive study days with blood-culture-negative assessments for S. aureus. • 6. Safety and tolerability based on incidence, type, severity, and relationship to study medication of AEs; and changes in laboratory tests • 7. Pharmacokinetics of ceftobiprole in the PK population

[3] = test system: MSSA; test: MIC of baseline blood S. aureus isolates: MSSA; type: cell-based, Staphylococcus aureus; details: MSSA samples
Source text: (§1) The distribution of ceftobiprole, daptomycin, and aztreonam MICs, including MIC50, MIC90, and MIC range, for blood S. aureus, MRSA, and MSSA, was tabulated for the mITT and CE populations. The shifts in ceftobiprole, daptomycin, and aztreonam MIC results from baseline to PTE, and the shifts in ceftobiprole, daptomycin, and aztreonam MIC results from baseline to the maximum value post-baseline by baseline infecting organisms (i.e., pathogens), were presented overall and by geographical region in the mITT and CE populations.

[4] = test system: MRSA; test: MIC of baseline blood S. aureus isolates: MRSA; type: cell-based, Staphylococcus aureus; details: MRSA samples
Source text: as §1

[5] = test system: S. aureus; test: On-treatment MIC shifts and MIC vs clinical failure, blood S. aureus; type: cell-based, Staphylococcus aureus; details: MIC of the drug received, daptomycin: three patients (two MSSA, one MRSA)
Source text: as §1

[6] = test system: acute bacterial skin and soft tissue infections; details: TARGET Phase 3; Overcash et al.; cited from earlier work
[7] = prolonged (>4 weeks) ceftobiprole treatment; cited from earlier work
[8] = mITT, S. aureus (overall), bloodstream clearance = two consecutive study days with negative blood culture
[9] = mITT, Cochran-Mantel-Haenszel adjusted
[10] = mITT, Cochran-Mantel-Haenszel adjusted, listed as ceftobiprole

## CCCCCCCCCC(=O)N[C@@H](Cc1c[nH]c2ccccc12)C(=O)N[C@H](CC(N)=O)C(=O)N[C@@H](CC(=O)O)C(=O)N[C@@H]1C(=O)NCC(=O)N[C@@H](CCCN)C(=O)N[C@@H](CC(=O)O)C(=O)N[C@H](C)C(=O)N[C@@H](CC(=O)O)C(=O)NCC(=O)N[C@H](CO)C(=O)N[C@@H]([C@H](C)CC(=O)O)C(=O)N[C@@H](CC(=O)c2ccccc2N)C(=O)O[C@@H]1C [Daptomycin, reference compound]
[1]
  DRC-assessed SAB relapses: 3.0%
  Overall success rate in patients with high vancomycin MICs of 2-8 mg/L: 50.0%
[1]; mITT, MRSA
  Median time (days) clearance (95% CI): 5 days
  Patients with clearance achieved: 87.8%
[1]; mITT, MSSA
  Median time (days) clearance (95% CI): 4 days
  Patients with clearance achieved: 95.2%
[1]; mITT, S. aureus (overall)
  Median time (days) clearance (95% CI): 4 days
[1]; [8]
  Patients with clearance achieved: 92.9%
[2]; Safety population
  Drug-related AEs leading to discontinuation: cosinophilic pneumonia: 2 n
  Drug-related AEs leading to discontinuation: myopathy: 1 n
[2]; in vivo
  Tolerability / safety in patients with complicated SAB: well tolerated
[3]
  Isolates at MIC 0.25 mg/L: 28%
  Isolates at MIC 0.5 mg/L: 71%
  Isolates at MIC either 0.25 mg/L or 0.5 mg/L: 99%
[4]
  Isolates at MIC 0.25 mg/L: 22%
  Isolates at MIC 0.5 mg/L: 76%
  Isolates at MIC 1 mg/L: 2%
[5]
  On-treatment increases in MICs by ≥four-fold, patients: 1.5%

## Nc1nc(/C(=N/O)C(=O)N[C@@H]2C(=O)N3C(C(=O)O)=C(/C=C4\CCN([C@@H]5CCNC5)C4=O)CS[C@H]23)ns1 [Ceftobiprole]
[1]
  DRC-assessed SAB relapses: 1.1%
  Overall success rate in patients with high vancomycin MICs of 2-8 mg/L: 87.5%
[1]; CE, Cochran-Mantel-Haenszel adjusted
  Adjusted difference ceftobiprole − daptomycin ± aztreonam (95% CI): DRC overall success at PTE (CE): 0.6% (−8.3. 9.5)
[1]; MRSA isolates typed by MLST, spa and SCCmec, 16/21 vs 16/23
  Overall success at the PTE visits, patients with MRSA of USA clonal strain type: 76.2%
[1]; mITT
  Investigator-assessed overall success at the PTE visit: 73.5%
  Patients who died through the PTE visit: 9.0%
  Patients who experienced new metastatic foci or other complications of SAB after Day 7: 5.8%
  Patients with microbiological eradication at the PTE visit: 82.0%
  Adjusted difference ceftobiprole − daptomycin ± aztreonam (95% CI): DRC overall success at PTE (mITT): 2.0% (−7.1, 11.1)
  Non-inferiority for overall success at PTE (70 days post-randomization): non-inferiority of ceftobiprole
[1]; mITT, 95% CI: −4.2, 13.5
  Adjusted proportion difference: investigator-assessed overall success at PTE: 4.7%
[1]; mITT, 70 days post-randomization
  Responders (overall success at the PTE visit): 69.8%
[1]; [9]
  Adjusted difference ceftobiprole − daptomycin ± aztreonam (95% CI): ACM through PTE: −0.5% (−6.2, 5.2)
  Adjusted difference ceftobiprole − daptomycin ± aztreonam (95% CI): death due to SAB (DRC): 0.4% (−3.2, 4.0)
  Adjusted difference ceftobiprole − daptomycin ± aztreonam (95% CI): microbiological response at PTE: 5.1% (−2.9, 13.0)
  Adjusted difference ceftobiprole − daptomycin ± aztreonam (95% CI): new metastatic foci or other complications of SAB after Day 7: 0.1% (−4.6, 4.8)
[1]; [10]
  Adjusted difference ceftobiprole − daptomycin ± aztreonam (95% CI): ACM through PTE: −0.5%
  Adjusted difference ceftobiprole − daptomycin ± aztreonam (95% CI): microbiological response at PTE: 5.1%
  Adjusted difference ceftobiprole − daptomycin ± aztreonam (95% CI): new metastatic foci or other complications of SAB after Day 7: 0.1%
[1]; mITT, listed as ceftobiprole
  Adjusted difference ceftobiprole − daptomycin ± aztreonam (95% CI): DRC overall success at PTE (mITT): 2.0%
  Non-inferiority for overall success at PTE (70 days post-randomization): non-inferiority of ceftobiprole to daptomycin±aztreonam; also recorded: non-inferior to daptomycin
[1]; mITT, MRSA
  Median time (days) clearance (95% CI): 5 days
  Patients with clearance achieved: 93.3%
[1]; mITT, MSSA
  Median time (days) clearance (95% CI): 3 days
  Patients with clearance achieved: 94.3%
[1]; mITT, S. aureus (overall)
  Median time (days) clearance (95% CI): 4 days
[1]; [8]
  Patients with clearance achieved: 94.2%
[1]; mITT, Table 1
  Time (days) to S. aureus bloodstream clearance, Median (95% CI): 4 (3, 5) days
[1]; subgroup analysis, 5/10 vs 5/6
  Response rate (primary endpoint), non-white patients: 50.0%
[1]; subgroup analysis, 17/20 vs 11/19
  Response rate (primary endpoint), age group of 18-34 years: 85.0%
[2]; human, in vivo
  AE anemia, patients: 11.0%
  AE gamma-glutamyl-transferase increased, patients: 6.3%
  AE nausea, patients: 10.5%
  Adverse events leading to discontinuation: 9.4%
  Drug-related AEs leading to discontinuation: 4.7%
  Drug-related AEs leading to discontinuation: allergy-type events: 4 n
  Drug-related AEs leading to discontinuation: hepatic function test abnormalities: 1 n
  Drug-related AEs leading to discontinuation: leukopenia: 1 n
  Drug-related AEs leading to discontinuation: nausea/vomiting: 4 n
  Drug-related AEs leading to discontinuation: seizure: 1 n
  Patients who experienced a serious adverse event (SAE): 18,8%
  Patients who experienced a severe AE: 15.2%
  Patients who experienced an AE: 63.4%
  Study treatment discontinuation, reason non-related AE: 3.2%
  Study treatment discontinuation, reason related AE: 4.8%
  Study-drug-related AEs: 13.1%
[2]; mITT population
  Study discontinuation, reason death: 9.0%
  Study treatment discontinuation, reason death: 4.8%
[3]
  Isolates at MIC 0.25 mg/L: 51%
  Isolates at MIC 0.5 mg/L: 48%
  Isolates at MIC either 0.25 mg/L or 0.5 mg/L: 99%
[4]
  Isolates at MIC 0.5 mg/L: 14%
  Isolates at MIC 1 mg/L: 58%
  Isolates at MIC 2 mg/L: 28%
[5]; listed as cefobiprole
  On-treatment increases in MICs by ≥four-fold, patients: No on-treatment increases
[6]
  Early clinical response and investigator-assessed clinical success vs vancomycin and aztreonam: non-inferior to vancomycin and aztreonam
[7]
  Risk of convulsions: potential for an increased risk of convulsions
